Reference: US4489061A, “Treatment of male mammals” (The Salk Institute for Biological Studies, priority 1982, dated 1984)
Where a SMILES comes first, the peptide text is derived from it. [ ]: non-standard residue; d: D form. dPhe(4-Cl) = N[C@H](Cc1ccc(Cl)cc1)C(=O)O; NMeL = CN[C@@H](CC(C)C)C(=O)O; pGlu = O=C1CC[C@@H](C(=O)O)N1; ΔPro = O=C(O)[C@@H]1C=CCN1

What was measured:
[1] = tested on: male rats; assay: 14-day daily injection in male rats: gonadal function, hormones, androgen-dependent behavior, fertility and recovery; format: in vivo, rat; conditions: 1 milligram daily for 14 days
From the text: The peptide is used at a level effective to reduce testes and seminal vesicles weights and also to inhibit spermatogenesis after a 14-day administration to male rats. […] Prostate weights of male rats recover in 2-3 weeks and seminal vesicles weights in 4-5 weeks. It is preferred to use dosage levels in the range of from about 0.1 to about 1 milligram per rat per day, which can be administered without detrimental side effects.
(§1) Male rats (about 320 grams each) are each treated with 1 milligram of the peptide synthesized in Example I, once a day, for 14 days by injection in 0.2 ml. of corn oil. All the rats show a decrease in testes and seminal vesicles weight, spermatogenesis and plasma androgen levels.
Full recovery of testes and seminal vesicle weights, androgen-dependent behavior and spermatogenesis ultimately occurs following cessation of the 14-day peptide administration. […] Fertility, as assessed by the ability to impregnate females, is restored in all of the rats which have not been sacrificed within 6 weeks after cessation of the injections.
as §1, with “A first group (I) of male” for “Male”, “Peptide A” for “the peptide”, “III, every day” for “I, once a day,”, “days,” for “days”, “levels. […]” for “levels.”

[2] = tested on: release of gonadotropins by the pituitary gland; conditions: versus [des His2]-LRF; cited from earlier work

CC(=O)N1CC=C[C@H]1C(=O)N[C@H](Cc1ccc(Cl)cc1)C(=O)N[C@H](Cc1c[nH]c2ccccc12)C(=O)N[C@@H](CO)C(=O)N[C@@H](Cc1ccc(O)cc1)C(=O)N[C@H](Cc1c[nH]c2ccccc12)C(=O)N(C)[C@@H](CC(C)C)C(=O)N[C@@H](CCCNC(=N)N)C(=O)N1CCC[C@H]1C(=O)NCC(N)=O [Example I, [Ac-dehydro Pro^1, pCl--D--Phe^2, D--Trp^3,6, NαMeLeu^7]-LRF] (Ac-[ΔPro][dPhe(4-Cl)][dW]SY[dW][NMeL]RPG-NH2)
side effects / damage [1]: without harmful side effects or irreversible damage

[pGlu]WSY[dA]LRPG-NH2 [[des His^2, D-Ala^6]-LRF]
potency as inhibitor of the release of gonadotropins, relative to the same peptide with Gly in the 6-position [2]: 3 times more potent
